One assay addresses human Gal-3 (hGal-3) (Homo sapiens (Human), UniProt P17931). Description: Competitive binding assay: biotinylated hGal-3 binding to microplate-adsorbed asialofetuin (ASF). The conditions noted are these: IC50 values from several measurements given as geomean. The method in brief:
(§1)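 Biotinylated hGal-3 or hGal-1 (preferably cysteine-free Cys→Ser mutant), 300–1000 ng/mL, competes with compound for ASF-coated wells for 3 h at 4 °C. Bound lectin detected with streptavidin-peroxidase (80 ng/mL, 1 h, 4 °C) and ABTS by absorbance; IC50 reported as geomean of several runs.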

In another assay the target is human Gal-1 (hGal-1) (Homo sapiens, UniProt P09382, C131S/C17S/C43S/C61S/C89S). The assay is described as follows: Competitive binding assay: biotinylated hGal-1 binding to microplate-adsorbed asialofetuin (ASF). The settings on record: IC50 values from several measurements given as geomean. The method, boiled down: as §1

Sequence of human Gal-3 (hGal-3) (P17931 whole entry): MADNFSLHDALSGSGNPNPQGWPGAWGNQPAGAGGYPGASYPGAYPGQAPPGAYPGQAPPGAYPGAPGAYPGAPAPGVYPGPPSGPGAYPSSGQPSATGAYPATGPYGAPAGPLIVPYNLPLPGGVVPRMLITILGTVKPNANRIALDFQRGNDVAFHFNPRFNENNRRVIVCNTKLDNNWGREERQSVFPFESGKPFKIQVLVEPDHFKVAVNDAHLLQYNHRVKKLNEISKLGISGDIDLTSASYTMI

In the case of `CO[C@@H]1[C@@H](n2cc(-c3ccc(Cl)c(F)c3F)nn2)[C@@H](O)[C@@H](CO)O[C@@H]1Cc1cn(C2(C)COC2)nn1` [Ex 2.1.6.], the IC50 – broadly, the concentration at which inhibition is half-maximal – turned out to be 40 nM at human Gal-3 (hGal-3) and 760 nM on human Gal-1 (hGal-1).
`CO[C@@H]1[C@@H](n2cc(-c3ccc(C)c(F)c3F)nn2)[C@@H](O)[C@@H](CO)O[C@@H]1Cn1cc(C2CCCC2)nn1` [Ex 1.2.32.]: the IC50 was determined as 60 nM on human Gal-3 (hGal-3) and 5130 nM on human Gal-1 (hGal-1).
`CO[C@@H]1[C@@H](n2cc(-c3ccc(F)c(F)c3F)nn2)[C@@H](O)[C@@H](CO)O[C@@H]1Cc1cn(C2(C(F)F)CCC2)nn1` [Ex 3.1.43., (2R,3R,4S,5R,6R)-6-((1-(1-(difluoromethyl)cyclobutyl)-1H-1,2,3-triazol-4-yl)methyl)-2-(hydroxymethyl)-5-methoxy-4-(4-(2,3,4-trifluorophenyl)-1H-1,2,3-triazol-1-yl)tetrahydro-2H-pyran-3-ol]: the IC50 was found to be 30 nM at human Gal-3 (hGal-3) and 210 nM on human Gal-1 (hGal-1).
The like results for `CO[C@@H]1[C@@H](n2cc(-c3ccc(Br)c(F)c3F)nn2)[C@@H](O)[C@@H](CO)O[C@@H]1Cc1cn(C2(C)CCC2)nn1` [Ex 4.1.13.] were, in that order, 20 nM and 2200 nM.
On to `CO[C@@H]1[C@@H](n2cc(-c3ccc(Cl)c(F)c3F)nn2)[C@@H](O)[C@@H](CO)O[C@@H]1Cc1cn([C@@]2(C(F)(F)F)C[C@H]3C[C@H]3C2)nn1` [Ex 2.1.69.], for which the IC50 at human Gal-3 (hGal-3) was determined as 40 nM; at human Gal-1 (hGal-1), 470 nM.
In the case of `CO[C@@H]1[C@@H](n2cc(-c3ccc(Cl)c(F)c3F)nn2)[C@@H](O)[C@@H](CO)O[C@@H]1Cc1cn(C23CC(F)(C2)C3)nn1` [Ex 2.1.25.], the IC50 at human Gal-3 (hGal-3) worked out at 50 nM; on human Gal-1 (hGal-1) it was 1960 nM.
With `CO[C@@H]1[C@@H](n2cc(-c3ccc(C)c(F)c3F)nn2)[C@@H](O)[C@@H](CO)O[C@@H]1Cn1cc(C2(O)CCOCC2)nn1` [Ex 1.2.35.], the values for the IC50 at human Gal-3 (hGal-3) and on human Gal-1 (hGal-1) were 70 nM and 4500 nM, respectively.
Consider `CO[C@@H]1[C@@H](n2cc(-c3ccc(C)c(F)c3F)nn2)[C@@H](O)[C@@H](CO)O[C@@H]1Cc1cn(C2(C)COC2)nn1` [Ex 1.1.6.], for which the IC50 came out at 40 nM on human Gal-3 (hGal-3) and 2210 nM on human Gal-1 (hGal-1).
As to `CO[C@@H]1[C@@H](n2cc(-c3ccc(F)c(F)c3F)nn2)[C@@H](O)[C@@H](CO)O[C@@H]1Cn1cc(C(C)(C)O)nn1` [Ex 3.2.34.], the values for the half-maximal inhibitory concentration (IC50) at human Gal-3 (hGal-3) and on human Gal-1 (hGal-1) were 440 nM and 720 nM, respectively.
For the molecule `CO[C@@H]1[C@@H](n2cc(-c3ccc(Cl)c(F)c3F)nn2)[C@@H](O)[C@@H](CO)O[C@@H]1Cc1cn(C2(C)CCOC2)nn1` (stereo partly drawn) [Ex 2.1.42.], the results for the IC50 at human Gal-3 (hGal-3) and at human Gal-1 (hGal-1) were 40 nM and 1830 nM, respectively.
The like results for `CO[C@@H]1[C@@H](n2cc(-c3ccc(F)c(F)c3F)nn2)[C@@H](O)[C@@H](CO)O[C@@H]1Cc1cn([C@@H]2CCOC[C@H]2F)nn1` (single isomer, unassigned) [Example 3.1.66.D, (2R,3R,4S,5R,6R)-6-((1-((3S*,4R*)-3-fluorotetrahydro-2H-pyran-4-yl)-1H-1,2,3-triazol-4-yl)methyl)-2-(hydroxymethyl)-5-methoxy-4-(4-(2,3,4-trifluorophenyl)-1H-1,2,3-triazol-1-yl)tetrahydro-2H-pyran-3-ol] were, in that order, 20 nM and 310 nM.
On to `CO[C@@H]1[C@@H](n2cc(-c3ccc(Cl)c(F)c3F)nn2)[C@@H](O)[C@@H](CO)O[C@@H]1Cc1cn([C@@H]2COCC[C@H]2F)nn1` [Example 2.1.65.A, (2R,3R,4S,5R,6R)-4-(4-(4-chloro-2,3-difluorophenyl)-1H-1,2,3-triazol-1-yl)-6-((1-((3R,4R)-4-fluorotetrahydro-2H-pyran-3-yl)-1H-1,2,3-triazol-4-yl)methyl)-2-(hydroxymethyl)-5-methoxytetrahydro-2H-pyran-3-ol], for which the IC50 turned out to be 60 nM at human Gal-3 (hGal-3) and 1800 nM at human Gal-1 (hGal-1).
On to `CO[C@@H]1[C@@H](n2cc(-c3ccc(F)c(F)c3F)nn2)[C@@H](O)[C@@H](CO)O[C@@H]1Cc1cn(C2(C(F)(F)F)COC2)nn1` [Ex 3.1.58., (2R,3R,4S,5R,6R)-2-(hydroxymethyl)-5-methoxy-6-((1-(3-(trifluoromethyl)oxetan-3-yl)-1H-1,2,3-triazol-4-yl)methyl)-4-(4-(2,3,4-trifluorophenyl)-1H-1,2,3-triazol-1-yl)tetrahydro-2H-pyran-3-ol], for which the IC50 on human Gal-3 (hGal-3) was found to be 40 nM; at human Gal-1 (hGal-1) it was 200 nM.
On the same counts, the results for `COCC1(n2cc(C[C@H]3O[C@H](CO)[C@H](O)[C@H](n4cc(-c5ccc(F)c(F)c5F)nn4)[C@H]3OC)nn2)COC1` [Ex 3.1.21.] are 60 nM and 770 nM.
On to `CO[C@@H]1[C@@H](n2cc(-c3ccc(F)c(F)c3F)nn2)[C@@H](O)[C@@H](CO)O[C@@H]1Cn1cc(C2(C)COC2)nn1` [Ex 3.2.6.], for which the IC50 was 70 nM at human Gal-3 (hGal-3) and 580 nM at human Gal-1 (hGal-1).
Take `COCC1(n2cc(C[C@H]3O[C@H](CO)[C@H](O)[C@H](n4cc(-c5ccc(C)c(F)c5F)nn4)[C@H]3OC)nn2)COC1` [Ex 1.1.21.]: the concentration for half-maximal inhibition (IC50) at human Gal-3 (hGal-3) came out at 40 nM; at human Gal-1 (hGal-1) it was 840 nM.
For the molecule `CO[C@@H]1[C@@H](n2cc(-c3ccc(Cl)c(F)c3F)nn2)[C@@H](O)[C@@H](CO)O[C@@H]1Cc1cn(C2COCC2(F)F)nn1` (mixture of isomers) [Example 2.1.90.A], the IC50 is 30 nM on human Gal-3 (hGal-3) and 1130 nM on human Gal-1 (hGal-1).
As to `CO[C@@H]1[C@@H](n2cc(-c3ccc(F)c(F)c3F)nn2)[C@@H](O)[C@@H](CO)O[C@@H]1Cn1cc(C23CC(C2)C3)nn1` [Ex 3.2.12.], the IC50 at human Gal-3 (hGal-3) was found to be 40 nM; on human Gal-1 (hGal-1), 970 nM.
As to `CO[C@@H]1[C@@H](n2cc(-c3ccc(Br)c(F)c3F)nn2)[C@@H](O)[C@@H](CO)O[C@@H]1Cc1cn(C23CCOC(C)(C2)C3)nn1` [Ex 4.1.62., (2R,3R,4S,5R,6R)-4-(4-(4-bromo-2,3-difluorophenyl)-1H-1,2,3-triazol-1-yl)-2-(hydroxymethyl)-5-methoxy-6-((1-(1-methyl-2-oxabicyclo[3.1.1]heptan-5-yl)-1H-1,2,3-triazol-4-yl)methyl)tetrahydro-2H-pyran-3-ol], the IC50 was 20 nM on human Gal-3 (hGal-3) and 2030 nM on human Gal-1 (hGal-1).
As for `CO[C@@H]1[C@@H](n2cc(-c3ccc(Cl)c(F)c3F)nn2)[C@@H](O)[C@@H](CO)O[C@@H]1Cc1cn(C2(C(F)(F)F)CCC(F)(F)CC2)nn1` [Ex 2.1.71., (2R,3R,4S,5R,6R)-4-(4-(4-chloro-2,3-difluorophenyl)-1H-1,2,3-triazol-1-yl)-6-((1-(4,4-difluoro-1-(trifluoromethyl)cyclohexyl)-1H-1,2,3-triazol-4-yl)methyl)-2-(hydroxymethyl)-5-methoxytetrahydro-2H-pyran-3-ol], the figures for the IC50 on human Gal-3 (hGal-3) and on human Gal-1 (hGal-1) were 50 nM and 670 nM, respectively.
For `CO[C@@H]1[C@@H](n2cc(-c3ccc(C)c(F)c3F)nn2)[C@@H](O)[C@@H](CO)O[C@@H]1Cc1cn(C2(CO)CCC2)nn1` [Ex 1.1.11.], the IC50 at human Gal-3 (hGal-3) came to 40 nM; at human Gal-1 (hGal-1) it was 2090 nM.
